Holding throughout (format): biochemical
Experiment [1] has as its target T1, TYK2 (Homo sapiens, UniProt P29597).
T1 construct: purchased Invitrogen
Put plainly: TYK2 enzyme inhibition test (LANCE method). The note with it: 1 μM test compound; for inhibition at 1 µM: read-out: TYK2 enzyme inhibitory activity (%, 1 μM). As for the experimental part:
(§1) TYK2 enzyme inhibitory activity of test compounds was measured by the LANCE method (PerkinElmer). First, a test compound diluted with assay buffer (50 mM HEPES (pH 7.5), 10 mM MgCl2, 1 mM EGTA, 2 mM DTT, 0.01% Tween20, 0.01% BSA) was added to a 384-well plate by 2 μL each. Then, a TYK2 (Invitrogen) solution and a fluorescence-labeled peptide substrate (ULight-JAK1, PerkinElmer) solution diluted with assay buffer to 375 ng/mL and 300 nM, respectively, were added by 2 μL each. Then, an enzyme reaction was started by adding 2 μL each of ATP solution prepared with assay buffer to 30 μM. After the reaction at room temperature for 1 hr, Detection Buffer (PerkinElmer) prepared to contain 20 mM EDTA, 4 nM europium-labeled anti-phosphotyrosine antibody (PerkinElmer) was added by 6 μL each. After standing at room temperature for 1 hr, fluorescence intensity (excitation wavelength 340 nm, fluorescence wavelength 665 nm, delay time 100 microseconds) was measured by a plate reader, Envision (PerkinElmer). The inhibitory activity of each compound was calculated as a relative activity value to the fluorescence intensity of a well free of enzyme as 100% inhibition.
In general terms: In TR-FRET formats the signal depends on donor and acceptor labels being close together.

Experiment [2] concerns the target T2, JAK1 (Homo sapiens, UniProt P23458).
T2 construct: purchased Invitrogen
Kind of experiment: JAK1 enzyme inhibition test (LANCE method). Conditions: 1 μM test compound; for inhibition at 1 µM: read-out: JAK1 enzyme inhibitory activity (%, 1 μM). As for the experimental part: as §1, with “JAK1 enzyme” for “TYK2 enzyme”, “a JAK1” for “a TYK2”, “to 187.5” for “to 375”, “to 150” for “to 30”

The target in experiment [3] is T3, JAK3 (Homo sapiens, UniProt P52333).
T3 construct: purchased Invitrogen
T3 sequence (P52333 1-1124): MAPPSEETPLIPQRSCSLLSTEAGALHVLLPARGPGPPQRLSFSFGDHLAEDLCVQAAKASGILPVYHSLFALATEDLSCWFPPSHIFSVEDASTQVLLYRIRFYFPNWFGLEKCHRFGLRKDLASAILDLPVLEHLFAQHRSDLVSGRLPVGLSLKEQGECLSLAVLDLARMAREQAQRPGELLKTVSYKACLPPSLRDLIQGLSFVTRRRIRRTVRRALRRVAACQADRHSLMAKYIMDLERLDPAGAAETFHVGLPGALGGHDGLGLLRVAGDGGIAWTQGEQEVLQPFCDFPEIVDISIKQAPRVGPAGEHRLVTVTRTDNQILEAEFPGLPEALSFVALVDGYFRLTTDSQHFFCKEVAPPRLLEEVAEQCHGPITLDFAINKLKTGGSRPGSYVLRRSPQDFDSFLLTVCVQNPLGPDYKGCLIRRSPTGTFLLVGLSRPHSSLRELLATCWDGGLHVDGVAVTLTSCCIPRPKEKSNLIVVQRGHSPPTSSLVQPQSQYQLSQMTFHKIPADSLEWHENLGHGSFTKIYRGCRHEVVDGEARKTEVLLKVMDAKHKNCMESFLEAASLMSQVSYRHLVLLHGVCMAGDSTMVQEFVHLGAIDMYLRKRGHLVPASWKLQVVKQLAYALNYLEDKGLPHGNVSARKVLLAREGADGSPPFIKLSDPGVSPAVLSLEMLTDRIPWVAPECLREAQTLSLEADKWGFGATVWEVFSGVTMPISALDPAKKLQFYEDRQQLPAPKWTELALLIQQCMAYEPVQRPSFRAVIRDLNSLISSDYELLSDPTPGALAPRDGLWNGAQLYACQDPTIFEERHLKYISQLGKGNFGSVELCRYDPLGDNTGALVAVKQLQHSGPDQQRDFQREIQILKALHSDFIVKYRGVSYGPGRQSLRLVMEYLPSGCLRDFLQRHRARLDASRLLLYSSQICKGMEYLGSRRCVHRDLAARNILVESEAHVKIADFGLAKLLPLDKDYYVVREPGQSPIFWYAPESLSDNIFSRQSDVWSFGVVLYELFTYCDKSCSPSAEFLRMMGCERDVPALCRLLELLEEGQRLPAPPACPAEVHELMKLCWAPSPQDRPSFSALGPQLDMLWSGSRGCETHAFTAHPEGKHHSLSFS
Put plainly: JAK3 enzyme inhibition test (LANCE method). The note with it: 1 μM test compound; for inhibition at 1 µM: read-out: JAK3 enzyme inhibitory activity (%, 1 μM). As for the experimental part:
as §1, with “JAK3 enzyme” for “TYK2 enzyme”, “a JAK3” for “a TYK2”, “to 12” for “to 375”, “to 15” for “to 30”

Experiment [4] addresses T4, JAK2 (Homo sapiens, UniProt O60674).
T4 construct: purchased Invitrogen
Put plainly: JAK2 enzyme inhibition test (LANCE method). Conditions: 1 μM test compound; for inhibition at 1 µM: read-out: JAK2 enzyme inhibitory activity (%, 1 μM). On the procedure: as §1, with “JAK2 enzyme” for “TYK2 enzyme”, “a JAK2” for “a TYK2”, “to 6” for “to 375”, “to 45” for “to 30”

T1 sequence (P29597 whole entry): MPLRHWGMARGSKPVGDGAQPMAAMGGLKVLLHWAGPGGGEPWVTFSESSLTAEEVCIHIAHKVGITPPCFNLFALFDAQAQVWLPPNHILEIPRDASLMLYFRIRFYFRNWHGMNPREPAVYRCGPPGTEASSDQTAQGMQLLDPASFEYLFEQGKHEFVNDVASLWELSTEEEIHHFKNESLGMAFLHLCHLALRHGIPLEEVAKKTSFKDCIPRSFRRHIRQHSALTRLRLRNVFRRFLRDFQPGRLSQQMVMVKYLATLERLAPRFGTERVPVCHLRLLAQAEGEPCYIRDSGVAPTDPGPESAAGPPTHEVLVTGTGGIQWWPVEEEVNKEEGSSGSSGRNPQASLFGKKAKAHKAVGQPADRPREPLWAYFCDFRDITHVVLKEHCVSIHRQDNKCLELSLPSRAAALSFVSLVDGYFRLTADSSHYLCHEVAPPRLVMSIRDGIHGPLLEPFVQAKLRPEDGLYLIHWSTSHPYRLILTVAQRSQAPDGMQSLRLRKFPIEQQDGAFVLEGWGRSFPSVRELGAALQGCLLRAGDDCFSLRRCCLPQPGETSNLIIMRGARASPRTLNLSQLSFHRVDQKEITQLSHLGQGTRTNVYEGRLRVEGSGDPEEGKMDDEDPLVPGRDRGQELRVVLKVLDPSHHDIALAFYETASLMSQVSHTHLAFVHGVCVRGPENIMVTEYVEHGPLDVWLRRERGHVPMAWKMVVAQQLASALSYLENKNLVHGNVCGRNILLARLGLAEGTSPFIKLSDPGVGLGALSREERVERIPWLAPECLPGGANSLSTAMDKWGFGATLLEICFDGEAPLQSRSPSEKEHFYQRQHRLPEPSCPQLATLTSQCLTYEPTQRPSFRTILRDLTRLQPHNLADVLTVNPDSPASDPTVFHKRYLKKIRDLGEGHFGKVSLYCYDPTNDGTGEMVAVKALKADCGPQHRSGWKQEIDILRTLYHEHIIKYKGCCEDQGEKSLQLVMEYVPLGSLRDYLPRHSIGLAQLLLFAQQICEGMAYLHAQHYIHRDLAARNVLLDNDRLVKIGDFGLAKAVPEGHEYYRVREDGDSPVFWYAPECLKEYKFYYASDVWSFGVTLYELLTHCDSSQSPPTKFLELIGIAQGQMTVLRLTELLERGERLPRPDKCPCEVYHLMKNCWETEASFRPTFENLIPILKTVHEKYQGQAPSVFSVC
T4 sequence (O60674 whole entry): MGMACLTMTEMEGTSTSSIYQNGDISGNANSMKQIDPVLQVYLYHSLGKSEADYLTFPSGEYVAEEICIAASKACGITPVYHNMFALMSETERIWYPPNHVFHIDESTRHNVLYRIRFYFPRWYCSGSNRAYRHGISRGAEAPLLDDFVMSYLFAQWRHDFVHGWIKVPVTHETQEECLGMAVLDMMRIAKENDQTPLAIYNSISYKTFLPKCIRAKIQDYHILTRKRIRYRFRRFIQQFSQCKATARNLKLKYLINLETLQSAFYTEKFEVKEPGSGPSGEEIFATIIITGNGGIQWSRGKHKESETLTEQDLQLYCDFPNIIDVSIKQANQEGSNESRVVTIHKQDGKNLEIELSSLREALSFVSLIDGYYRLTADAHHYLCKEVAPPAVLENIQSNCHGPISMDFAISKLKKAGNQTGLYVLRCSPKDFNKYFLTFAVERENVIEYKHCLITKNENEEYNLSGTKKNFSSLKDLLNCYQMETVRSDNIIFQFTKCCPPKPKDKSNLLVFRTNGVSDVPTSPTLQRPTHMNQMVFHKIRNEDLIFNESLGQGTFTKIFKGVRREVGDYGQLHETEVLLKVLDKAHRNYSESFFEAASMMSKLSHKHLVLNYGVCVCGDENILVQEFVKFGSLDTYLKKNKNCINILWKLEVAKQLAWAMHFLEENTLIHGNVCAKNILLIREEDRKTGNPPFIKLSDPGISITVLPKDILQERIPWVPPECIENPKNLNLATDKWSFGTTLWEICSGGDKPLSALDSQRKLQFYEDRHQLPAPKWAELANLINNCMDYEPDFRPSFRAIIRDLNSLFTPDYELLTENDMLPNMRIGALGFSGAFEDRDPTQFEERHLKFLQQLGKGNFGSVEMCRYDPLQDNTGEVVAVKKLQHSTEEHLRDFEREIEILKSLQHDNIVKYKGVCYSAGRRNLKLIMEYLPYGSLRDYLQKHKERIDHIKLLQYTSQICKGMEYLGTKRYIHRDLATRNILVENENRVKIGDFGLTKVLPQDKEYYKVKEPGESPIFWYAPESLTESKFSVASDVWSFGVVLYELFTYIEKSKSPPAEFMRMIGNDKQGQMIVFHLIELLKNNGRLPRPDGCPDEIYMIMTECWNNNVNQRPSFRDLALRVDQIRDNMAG
T2 sequence (P23458 whole entry): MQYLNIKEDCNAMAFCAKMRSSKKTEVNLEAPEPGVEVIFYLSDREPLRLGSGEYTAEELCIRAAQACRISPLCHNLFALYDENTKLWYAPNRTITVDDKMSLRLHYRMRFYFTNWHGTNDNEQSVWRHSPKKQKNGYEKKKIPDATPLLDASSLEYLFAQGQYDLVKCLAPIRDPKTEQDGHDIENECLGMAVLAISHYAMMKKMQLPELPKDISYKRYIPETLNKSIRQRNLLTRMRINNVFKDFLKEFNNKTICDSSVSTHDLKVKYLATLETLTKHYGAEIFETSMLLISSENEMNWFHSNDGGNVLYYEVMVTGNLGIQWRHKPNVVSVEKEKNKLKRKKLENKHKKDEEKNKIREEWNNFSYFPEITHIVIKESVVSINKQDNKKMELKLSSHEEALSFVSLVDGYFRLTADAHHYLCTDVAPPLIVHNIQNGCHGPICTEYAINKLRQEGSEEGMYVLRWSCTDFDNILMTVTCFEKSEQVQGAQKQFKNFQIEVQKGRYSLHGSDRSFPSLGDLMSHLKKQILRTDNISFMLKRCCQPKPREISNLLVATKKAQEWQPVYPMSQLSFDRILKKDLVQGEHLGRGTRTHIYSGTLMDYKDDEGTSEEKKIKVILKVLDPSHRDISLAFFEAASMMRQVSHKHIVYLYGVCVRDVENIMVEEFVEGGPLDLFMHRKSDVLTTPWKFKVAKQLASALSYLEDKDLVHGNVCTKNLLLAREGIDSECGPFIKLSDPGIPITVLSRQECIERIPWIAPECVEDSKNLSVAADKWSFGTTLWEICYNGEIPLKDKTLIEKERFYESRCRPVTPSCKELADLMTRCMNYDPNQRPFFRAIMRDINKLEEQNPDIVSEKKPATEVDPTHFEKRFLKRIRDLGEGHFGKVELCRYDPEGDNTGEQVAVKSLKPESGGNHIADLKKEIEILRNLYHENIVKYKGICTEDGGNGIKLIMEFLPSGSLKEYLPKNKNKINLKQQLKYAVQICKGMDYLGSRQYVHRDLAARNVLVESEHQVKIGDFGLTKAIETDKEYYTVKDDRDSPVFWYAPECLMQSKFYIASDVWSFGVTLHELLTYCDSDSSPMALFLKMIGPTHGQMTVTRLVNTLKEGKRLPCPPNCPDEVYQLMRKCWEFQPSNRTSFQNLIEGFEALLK

As for `COC1(c2cc(-c3cn(C(C4CC4)C4CC4)c(=O)c4c(N)n[nH]c34)nn2C)CN(C(=O)C(C)C)C1` [Example 89, 3-amino-5-(dicyclopropylmethyl)-7-(5-(1-isobutyryl-3-methoxyazetidin-3-yl)-1-methyl-1H-pyrazol-3-yl)-1,5-dihydro-4H-pyrazolo[4,3-c]pyridin-4-one], the inhibition at 1 µM in experiment [1] turned out to be 100%; in experiment [2], 97%; in experiment [3], 99%; in experiment [4] it was 99%.
As to `CC(C)[C@H](C)n1cc(-c2cc(N(C)C(C)C)n(C)n2)c2[nH]nc(N)c2c1=O` [Example 101, 3-amino-7-(5-(isopropyl(methyl)amino)-1-methyl-1H-pyrazol-3-yl)-5-((2S)-3-methylbutan-2-yl)-1,5-dihydro-4H-pyrazolo[4,3-c]pyridin-4-one], the inhibition at 1 µM in experiment [1] was found to be 100%; in experiment [2], 96%; in experiment [3], 99%; in experiment [4] it was 97%.
For the molecule `CC1CCCCC1n1cc(-c2cc(N3CCOCC3)n(C)n2)c2[nH]nc(N)c2c1=O` (stereo not drawn) [Example 154, 3-amino-5-(2-methylcyclohexyl)-7-(1-methyl-5-(morpholin-4-yl)-1H-pyrazol-3-yl)-1,5-dihydro-4H-pyrazolo[4,3-c]pyridin-4-one], the “TYK2 enzyme inhibitory activity (%, 1 μM)” value in experiment [1] is on record as 102%. Further, the “JAK1 enzyme inhibitory activity (%, 1 μM)” value in experiment [2] turned out to be 97%. For the same molecule, the “JAK3 enzyme inhibitory activity (%, 1 μM)” value in experiment [3] is on record as 100%. Moreover, the “JAK2 enzyme inhibitory activity (%, 1 μM)” value in experiment [4] was determined as 98%.
As to `COC1(c2cc(-c3cn([C@@H](C)C(C)C)c(=O)c4c(N)n[nH]c34)nn2C)CN(C(=O)C(C)C)C1` [Example 111, 3-amino-7-(5-(1-isobutyryl-3-methoxyazetidin-3-yl)-1-methyl-1H-pyrazol-3-yl)-5-((2S)-3-methylbutan-2-yl)-1,5-dihydro-4H-pyrazolo[4,3-c]pyridin-4-one], the inhibition at 1 µM in experiment [1] was determined as 100%; in experiment [2], 83%; in experiment [3], 98%; in experiment [4], 97%.
On to `CN(C)C[C@H]1CCCN1c1cc(-c2cn(C(C3CC3)C3CC3)c(=O)c3c(N)n[nH]c23)nn1C` [Example 145, 3-amino-5-(dicyclopropylmethyl)-7-(5-((2R)-2-((dimethylamino)methyl)pyrrolidin-1-yl)-1-methyl-1H-pyrazol-3-yl)-1,5-dihydro-4H-pyrazolo[4,3-c]pyridin-4-one], for which the inhibition at 1 µM is 100% in experiment [1], 89% in experiment [2], 99% in experiment [3] and 98% in experiment [4].
Take `CC(C)[C@H](C)n1cc(-c2cc(N3CCCC3CN(C)C)n(C)n2)c2[nH]nc(N)c2c1=O` (stereo partly drawn) [Example 104, 3-amino-7-(5-(2-((dimethylamino)methyl)pyrrolidin-1-yl)-1-methyl-1H-pyrazol-3-yl)-5-((2S)-3-methylbutan-2-yl)-1,5-dihydro-4H-pyrazolo[4,3-c]pyridin-4-one]: in experiment [1], the “TYK2 enzyme inhibitory activity (%, 1 μM)” value was determined as 100%. Besides, the “JAK1 enzyme inhibitory activity (%, 1 μM)” value in experiment [2] came to 72%. For the same molecule, the “JAK3 enzyme inhibitory activity (%, 1 μM)” value in experiment [3] turned out to be 98%. Moreover, the “JAK2 enzyme inhibitory activity (%, 1 μM)” value in experiment [4] is reported as 96%.
As for `CC1CCCCC1n1cc(-c2cc(C(C)(C)O)n(C)n2)c2[nH]nc(N)c2c1=O` (racemic) [Example 116, 3-amino-7-(5-(2-hydroxypropan-2-yl)-1-methyl-1H-pyrazol-3-yl)-5-(2-methylcyclohexyl)-1,5-dihydro-4H-pyrazolo[4,3-c]pyridin-4-one], the inhibition at 1 µM in experiment [1] came to 102%; in experiment [2] it was 101%; in experiment [3], 101%; in experiment [4] it was 100%.
Regarding `CC1CCCCC1n1cc(-c2cc(N3CCOCC3)n(C)n2)c2[nH]nc(N)c2c1=O` (stereo not drawn) [Example 153, 3-amino-5-(2-methylcyclohexyl)-7-(1-methyl-5-(morpholin-4-yl)-1H-pyrazol-3-yl)-1,5-dihydro-4H-pyrazolo[4,3-c]pyridin-4-one], the “TYK2 enzyme inhibitory activity (%, 1 μM)” value in experiment [1] came out at 103%. The “JAK1 enzyme inhibitory activity (%, 1 μM)” value in experiment [2] worked out at 99%. Besides, in experiment [3], the “JAK3 enzyme inhibitory activity (%, 1 μM)” value is 101%. Further, the “JAK2 enzyme inhibitory activity (%, 1 μM)” value in experiment [4] was found to be 98%.
Regarding `Cn1nc(-c2cn(C(C3CC3)C3CC3)c(=O)c3c(N)n[nH]c23)cc1N1CCOCC1` [Example 79, 3-amino-5-(dicyclopropylmethyl)-7-(1-methyl-5-(morpholin-4-yl)-1H-pyrazol-3-yl)-1,5-dihydro-4H-pyrazolo[4,3-c]pyridin-4-one], the inhibition at 1 µM came to 99% in experiment [1], 99% in experiment [2], 100% in experiment [3] and 99% in experiment [4].

(Values after patent publication US9637483B2, “Heterocyclic compound” (TAKEDA PHARMACEUTICAL COMPANY LIMITED, priority 2013, dated 2017).)
